Earlier results as cited in paper PMC2033546, “Effects of somatostatin analogue RC-160 and bombesin/gastrin-releasing peptide antagonists on the growth of human small-cell and non-small-cell lung carcinomas in nude mice” (British Journal of Cancer, 1994).
Bridges are numbered along the chain shown (N, C = ends). Where no end group is shown, it is not given here.

Assays:
[1] = tested on: IGF-I levels; settings: patients with SCLC; ref Macauley et al. (1991); cited from earlier work
Text: (§1) Br. J. Cancer (1994). 70, 886 892 ? Macmillan Press Ltd..

[2] = tested on: MIA PaCa-2 human pancreatic cancer cell line; settings: ref Liebow et al., 1989; cited from earlier work
Text: as §1

Row | Substance | IGF-I levels (in words) [1] | Effect on EGF-stimulated cell growth (in words) [2] | Effect on EGF-stimulated phosphorylation of the tyrosine kinase domain of the EGF receptors (in words) [2]
1 | octreotide | reduced IGF-I levels |  | 
2 | somatostatin: native peptide somatostatin (AGCKNFFWKTFTSC; disulfide 3-14; ends not checked; UniProt P61278 103-116, looked up) [reference compound] |  | reversed the stimulatory effect of EGF | reversed the stimulatory effect of EGF
